Results taken from patent US10183037B2, “Nucleoside phosphoramidate prodrugs” (Gilead Pharmasset LLC, priority 2007, dated 2019).

Tested on: HCV replicon RNA-containing Huh7 cells (clone A cells)
Assay: HCV replicon assay (replicon RNA by RT-PCR, ΔCt HCV, EC90)
Format: cell-based
Settings: Hepatitis C virus, Huh-7, 96 h; for log reduction at 50 µM: read-out: Log10 Reduction at 50 μM
Procedure: HCV replicon assay. HCV replicon RNA-containing Huh7 cells (clone A cells; Apath, LLC, St. Louis, Mo.) were kept at exponential growth in Dulbecco's modified Eagle's medium (high glucose) containing 10% fetal bovine serum, 4 mM L-glutamine and 1 mM sodium pyruvate, 1×nonessential amino acids, and G418 (1,000 μg/ml). Antiviral assays were performed in the same medium without G418. Cells were seeded in a 96-well plate at 1,500 cells per well, and test compounds were added immediately after seeding. Incubation time 4 days. At the end of the incubation step, total cellular RNA was isolated (RNeasy 96 kit; Qiagen). Replicon RNA and an internal control (TaqMan rRNA control reagents; Applied Biosystems) were amplified in a single-step multiplex RT-PCR protocol as recommended by the manufacturer. The HCV primers and probe were designed with Primer Express software (Applied Biosystems) and covered highly conserved 5′-untranslated region (UTR) sequences (sense, 5′-AGCCATGGCGTTAGTA(T)GAGTGT-3′ (SEQ ID NO: 1), and antisense, 5′-TTCCGCAGACCACTATGG-3′ (SEQ ID NO: 2); probe, 5′-FAM-[…]-TAMRA-3′ (SEQ ID NO: 3)).
To express the antiviral effectiveness of a compound, the threshold RT-PCR cycle of the test compound was subtracted from the average threshold RT-PCR cycle of the no-drug control (ΔCtHCV). A ΔCt of 3.3 equals a 1-log 10 reduction (equal to the 90% effective concentration [EC90]) in replicon RNA levels. The cytotoxicity of the test compound could also be expressed by calculating the ΔCtrRNA values. The ΔΔCt specificity parameter could then be introduced (ΔCtHCV−ΔCtrRNA), in which the levels of HCV RNA are normalized for the rRNA levels and calibrated against the no-drug control.

| Structure (SMILES) | log reduction at 50 µM | EC90 |
| --- | --- | --- |
| COC(=O)[C@@H](NP(=O)(OC[C@H]1O[C@@H](n2ccc(=O)[nH]c2=O)[C@](C)(F)[C@@H]1O)Oc1ccccc1)C(C)C (stereo partly drawn) [Example 6, 2′-Deoxy-2′-fluoro-2′-C-methyluridine 5′-(phenylmethoxy-valyl phosphate)] | 0.45 |  |
| COC(=O)CNP(=O)(OC[C@H]1O[C@@H](n2ccc(=O)[nH]c2=O)[C@](C)(F)[C@@H]1O)Oc1ccccc1 (stereo partly drawn) [compound 15] |  | 860 nM |
| COC(=O)[C@H](C)NP(=O)(OC[C@H]1O[C@@H](n2ccc(=O)[nH]c2=O)[C@](C)(F)[C@@H]1O)Oc1ccc(Br)cc1 (stereo partly drawn) [Example 8, 2′-Deoxy-2′-fluoro-2′-C-methyluridine 5′-(4-bromophenylmethoxy-alanyl phosphate)] | 1.48 | 2110 nM |
| C[C@H](NP(=O)(OC[C@H]1O[C@@H](n2ccc(=O)[nH]c2=O)[C@](C)(F)[C@@H]1O)Oc1ccc(F)cc1)C(=O)OC1CCCCC1 (stereo partly drawn) [compound 55] | 2.38 | < 300 nM |
| CCCCOC(=O)[C@H](C)NP(=O)(OC[C@H]1O[C@@H](n2ccc(=O)[nH]c2=O)[C@](C)(F)[C@@H]1O)Oc1ccccc1Cl (stereo partly drawn) [compound 53] | 1.33 | < 300 nM |
| CC(C)OC(=O)[C@H](C)NP(=O)(OC[C@H]1O[C@@H](n2ccc(=O)[nH]c2=O)[C@](C)(F)[C@@H]1O)Oc1ccccc1 (stereo partly drawn) [compound 25] | 2.22 | 390 nM |
| COC(=O)[C@H](C)NP(=O)(OC[C@H]1O[C@@H](N2C=NC3C(NC4CCCC4)=NC(N)=NC32)[C@](C)(F)[C@@H]1O)Oc1ccccc1 (stereo partly drawn) [compound 69] | 2.25 | < 300 nM |
| CC(C)OC(=O)[C@H](C)NP(=O)(OC[C@H]1O[C@@H](n2ccc(=O)[nH]c2=O)[C@](C)(F)[C@@H]1O)Oc1ccccc1Cl (stereo partly drawn) [compound 36] | 1.64 | 21900 nM |
| CC(C)OC(=O)[C@H](C)NP(=O)(OC[C@H]1O[C@@H](n2ccc(=O)[nH]c2=O)[C@](C)(F)[C@@H]1O)Oc1ccc(Cl)cc1 (stereo partly drawn) [compound 39] | 1.78 | 470 nM |
| CC(C)OC(=O)[C@H](C)NP(=O)(OC[C@H]1O[C@@H](n2ccc(=O)[nH]c2=O)[C@](C)(F)[C@@H]1O)Oc1ccc(Br)cc1 (stereo partly drawn) [compound 54] | 1.55 | 570 nM |
| COC(=O)[C@H](C)NP(=O)(OC[C@H]1O[C@@H](n2ccc(N)nc2=O)[C@](C)(F)[C@@H]1O)Oc1ccccc1 (stereo partly drawn) [Example 10, 2′-Deoxy-2′-fluoro-2′-C-methylcytidine 5′-(phenylmethoxy-alanyl phosphate)] | 1.25 | 19200 nM |
| COC(=O)[C@H](C)NP(=O)(OC[C@H]1O[C@@H](n2ccc(=O)[nH]c2=O)[C@](C)(F)[C@@H]1O)Oc1ccccc1 (stereo partly drawn) [Example 5, 2′-Deoxy-2′-fluoro-2′-C-methyluridine 5′-(phenylmethoxy-alanyl phosphate)] | 1.21 | 3000 nM |
| C[C@H](NP(=O)(OC[C@H]1O[C@@H](n2ccc(=O)[nH]c2=O)[C@](C)(F)[C@@H]1O)Oc1ccccc1)C(=O)OC1CCCCC1 (stereo partly drawn) [compound 49] | 2.69 | 126 nM |
| COC(=O)[C@H](C)NP(=O)(OC[C@H]1O[C@@H](N2C=NC3C(N4CCC4)=NC(N)=NC32)[C@](C)(F)[C@@H]1O)Oc1ccccc1 (stereo partly drawn) [compound 70] | 2.25 | < 300 nM |
| COC(=O)[C@@H](NP(=O)(OC[C@H]1O[C@@H](n2ccc(N)nc2=O)[C@](C)(F)[C@@H]1O)Oc1ccc(Br)cc1)C(C)C (stereo partly drawn) [Example 11, 2′-Deoxy-2′-fluoro-2′-C-methylcytidine 5′-(4-bromophenylmethoxy-valyl phosphate)] | 0.55 |  |
| COC(=O)[C@@H](NP(=O)(OC[C@H]1O[C@@H](n2ccc(=O)[nH]c2=O)[C@](C)(F)[C@@H]1O)Oc1ccc(Br)cc1)C(C)C (stereo partly drawn) [Example 7, 2′-Deoxy-2′-fluoro-2′-C-methyluridine 5′-(4-bromophenylmethoxy-valyl phosphate)] | -0.31 |  |
| CC(C)OC(=O)[C@H](C)NP(=O)(OC[C@H]1O[C@@H](n2ccc(=O)[nH]c2=O)[C@](C)(F)[C@@H]1O)Oc1ccc(F)cc1 (stereo partly drawn) [compound 28] | 2.16 | 750 nM |
| COC(=O)[C@@H](NP(=O)(OC[C@H]1O[C@@H](n2ccc(N)nc2=O)[C@](C)(F)[C@@H]1O)Oc1ccccc1)C(C)C (stereo partly drawn) [Example 12, 2′-deoxy-2′-fluoro-2′-C-methylcytidine 5′-(phenylmethoxy-valyl phosphate)] | -0.31 |  |
| CCOC(=O)[C@H](C)NP(=O)(OC[C@H]1O[C@@H](n2ccc(=O)[nH]c2=O)[C@](C)(F)[C@@H]1O)Oc1ccc(F)cc1 (stereo partly drawn) [compound 27] | 2.25 | 660 nM |
